≈ marks a conversion by molar mass, not a printed value. Where “and” joins values, the source holds several entries; their conditions need not be identical. Identical values can stand only once. Like-named read-outs stand apart in the source and are kept apart here.
Assays:
total AKT microclusters = assay: TIRF microscopy of AKT microcluster formation in APBTs; type: cell-based, human
Procedure: (§1) APBTs were stimulated in the presence of 0.1% ethanol control or 10 μg/ml GML with plate-bound anti-CD3 on glass coverslips, fixed with 4% paraformaldehyde, permeabilized with 0.25% Triton-X, and stained as described below. To detect microcluster formation of TCR signaling proteins, antibodies specific for LAT pY226 (BD Pharmingen), PLC-γ pY783 (Cell Signaling, and total AKT (Cell signaling) were incubated with fixed and permeabilized cells overnight for 4°C. Subsequently, conjugated secondary antibodies Dylight Goat anti-rabbit IgG and DyLight 568 Goat anti-rabbit IgG (Biolegend) as well as Alexa Fluor 488 goat anti-mouse IgG1 (Thermo Fisher) were incubated with the cells at room temperature for 2 hours. All images were captured by the Leica AM TIRF MC system using 100x magnification oil immersion objective lens at room temperature at the University of Iowa Central Microscopy Research Facility.
(§2) TIRF microscopy images were processed and analyzed using ImageJ. Quantification of membrane clustering was done by measuring mean pixel intensity in the […] of cells for 60 cells total from at least 3 independent experiments. Similar quantification methods have been used in other published reports.
(§3) (A). […] Pixel intensities of median axis of each cell in images obtained in (A) were quantified and averaged using ImageJ. […]

pig serum albumin (PSA) = target: T1, pig serum albumin (PSA) (Sus scrofa, UniProt P08835); assay: Isothermal titration calorimetry with pig serum albumin; type: binding
T1 construct: purchased Sigma Aldrich
Procedure: (§4) Supplementary file pone.0165083.s001.pdf: S1 Fig ITC curves of GML with various mammalian albumins. 150μM of GML was injected incrementally into the sample chamber containing 5μM of mammalian albumins. […] (PDF) Click here for additional data file.

[1] = target: human serum albumin (HSA) (Homo sapiens, UniProt P02768); assay: Isothermal titration calorimetry with human serum albumin; details: for ΔH: room temperature, pH 7.4
Procedure: (§5) All samples were degassed, and ITC was performed at room temperature as previously described using MicroCal VP-ITC calorimeter. […] The data were analyzed using a single-site binding model provided in the ITC analysis software package. […] The values for ΔH, Kd and stoichiometry averaged ± standard deviation. […] The values for stoichiometry and binding affinity were derived from the ITC experiments.
150 μM of ethanol solubilized GML was placed in the syringe and injected into the sample chamber twenty one times with 180 seconds interval between injections.

LAT pY226 microclusters = assay: TIRF microscopy of LAT microcluster formation in APBTs; type: cell-based, human
Procedure: as §1, §2, §3

IL-10 production = assay: ELISA of TCR-induced IL-10 production by APBTs; type: cell-based, human
Procedure: (§6) The cells were then stimulated with plate-bound 2 μg/ml of anti-CD3 (Biolegend) for 24 hours. Protein concentrations of IL-2, IFN-γ, IL-10, and TNF-α in the media supernatants were measured by standard TMB ELISA.
(§7) Cells were plated on 2 μg/ml anti-CD3 coated plates for 24 hours. Extracellular cytokine production for (A) IFN-γ, (B) IL-2, (C) IL-10, or (D) TNFα was measured by ELISA in 3 independent experiments with different human donors.

[2] = target: T2, mouse serum albumin (MSA) (Mus musculus, UniProt P07724); assay: Isothermal titration calorimetry with mouse serum albumin; type: binding
T2 construct: purchased Sigma Aldrich
Procedure: as §4

[3] = system: PLC-γ1 pY783 microclusters; assay: TIRF microscopy of PLC-γ1 microcluster formation in APBTs; type: cell-based, human
Procedure: as §1, §2, §3

IFN-γ production = assay: ELISA of TCR-induced IFN-γ production by APBTs; type: cell-based, human
Procedure: as §6, §7

[4] = cited from earlier work
IL-2 production = assay: ELISA of TCR-induced IL-2 production by APBTs; type: cell-based, human
Procedure: as §6
(§8) Cells were plated on 2 μg/ml anti-CD3 coated plates for 24 hours. Extracellular cytokine production for (A) IFN-γ, (B) IL-2, (C) IL-10, or (D) TNFα was measured by ELISA in 3 independent experiments with different human donors. To statistically confirm that GML is suppressing cytokine production without serum, Student t’s test was done by comparing EtOH treated groups with GML treated groups under the same serum free environment, indicated by the black bars, with # denoting p<0.05.

[5] = target: T3, rabbit serum albumin (RSA) (Oryctolagus cuniculus, UniProt P49065); assay: Isothermal titration calorimetry with rabbit serum albumin; type: binding
T3 construct: purchased Sigma Aldrich
Procedure: as §4

[6] = system: AKT phosphorylation at threonine 308 and serine 473; assay: TCR-induced AKT phosphorylation by immunoblotting in APBTs; type: cell-based, human
Procedure: The cells were then incubated on ice with 2 μg/ml anti-CD3 for 30 minutes. […] Cells were then lysed with 2X sample buffer, heated to 95°C, and sonicated.
Cell lysates were separated by polyacrylamide gel electrophoresis and transferred to PVDF. The membranes were blocked in 0.5X SEA BLOCK blocking buffer diluted in PBS. Primary antibodies were incubated overnight at 4°C. Secondary antibodies were incubated with the membrane for 30 minutes at room temperature and then imaged using Licor Odyssey (Lincoln, NE, USA). At least four independent replicates with different human donors were performed for each experiment. Immunoblot band intensity was quantified using Odyssey’s v3.0 software with the intensity of the phospho-specific antibody normalized to the intensity of the GAPDH antibody. To minimize variability between human donors, band intensities were further normalized to maximal band intensity of ethanol vehicle control. The following antibodies were used for immunoblotting: AKT pThr 308 (Cell Signaling), AKT pS473 (Invitrogen), GAPDH (Meridian Life Sciences), and IRDye 800CW or IRDye680-conjugated secondary antibodies (Thermo Scientific).
Cells were stimulated by crosslinking 2 μg/ml of anti-CD3 for various times. Phosphorylation of AKT at threonine 308 and serine 473 were assessed by immunoblotting.

HSA = system: HSA
Procedure: as §5
While the presence of other ligands would increase the proportion of free floating GML unbound to albumin, we assumed there were no other albumin ligands present in the system to simplify our calculations.
(PDF) Click here for additional data file.

TNF-α production = assay: ELISA of TCR-induced TNF-α production by APBTs; type: cell-based, human
Procedure: as §6, §8

[7] = target: T4, bovine serum albumin (BSA) (Bos taurus, UniProt P02769); assay: Isothermal titration calorimetry with bovine serum albumin; type: binding
T4 construct: purchased Sigma Aldrich
Procedure: as §4

[8] = ITC, single-site model, 5 μM albumin, 150 μM ligand
[9] = GML doses 10 μg/ml or greater, absence of serum albumin, anti-CD3 24 hours
[10] = 10 μg/ml GML, serum free media, significant at 5 and 15 minutes post stimulation

human serum albumin (HSA), sequence (P02768 25-609): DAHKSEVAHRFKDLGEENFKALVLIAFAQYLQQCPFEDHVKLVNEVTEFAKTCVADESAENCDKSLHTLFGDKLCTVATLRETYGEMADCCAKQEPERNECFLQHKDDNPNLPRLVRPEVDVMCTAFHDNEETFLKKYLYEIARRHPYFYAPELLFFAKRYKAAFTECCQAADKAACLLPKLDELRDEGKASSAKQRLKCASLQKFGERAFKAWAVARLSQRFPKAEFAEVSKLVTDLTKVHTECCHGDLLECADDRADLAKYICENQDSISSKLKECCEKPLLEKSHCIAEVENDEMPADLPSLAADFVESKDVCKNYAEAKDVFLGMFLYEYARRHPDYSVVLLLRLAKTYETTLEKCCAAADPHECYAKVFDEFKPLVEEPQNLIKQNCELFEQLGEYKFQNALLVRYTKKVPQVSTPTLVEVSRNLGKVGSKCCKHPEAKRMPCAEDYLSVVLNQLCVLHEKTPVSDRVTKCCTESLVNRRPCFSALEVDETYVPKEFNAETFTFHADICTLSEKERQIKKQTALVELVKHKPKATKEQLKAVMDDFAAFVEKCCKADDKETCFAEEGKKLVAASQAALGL
T3 sequence (P49065 25-608): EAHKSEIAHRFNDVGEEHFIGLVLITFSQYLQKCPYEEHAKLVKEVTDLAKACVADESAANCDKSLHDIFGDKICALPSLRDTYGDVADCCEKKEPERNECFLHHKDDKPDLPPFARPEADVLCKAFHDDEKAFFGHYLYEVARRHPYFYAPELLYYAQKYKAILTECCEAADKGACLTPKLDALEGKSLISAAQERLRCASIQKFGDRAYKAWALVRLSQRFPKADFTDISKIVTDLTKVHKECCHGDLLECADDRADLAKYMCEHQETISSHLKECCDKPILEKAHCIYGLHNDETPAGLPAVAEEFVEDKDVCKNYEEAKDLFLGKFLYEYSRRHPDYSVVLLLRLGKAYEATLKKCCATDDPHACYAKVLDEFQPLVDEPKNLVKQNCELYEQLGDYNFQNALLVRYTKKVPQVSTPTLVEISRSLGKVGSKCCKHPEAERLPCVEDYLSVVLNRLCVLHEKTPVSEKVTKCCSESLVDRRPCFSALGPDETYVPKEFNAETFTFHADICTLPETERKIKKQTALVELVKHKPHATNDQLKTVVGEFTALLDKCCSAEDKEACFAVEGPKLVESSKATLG
T2 sequence (P07724 25-608): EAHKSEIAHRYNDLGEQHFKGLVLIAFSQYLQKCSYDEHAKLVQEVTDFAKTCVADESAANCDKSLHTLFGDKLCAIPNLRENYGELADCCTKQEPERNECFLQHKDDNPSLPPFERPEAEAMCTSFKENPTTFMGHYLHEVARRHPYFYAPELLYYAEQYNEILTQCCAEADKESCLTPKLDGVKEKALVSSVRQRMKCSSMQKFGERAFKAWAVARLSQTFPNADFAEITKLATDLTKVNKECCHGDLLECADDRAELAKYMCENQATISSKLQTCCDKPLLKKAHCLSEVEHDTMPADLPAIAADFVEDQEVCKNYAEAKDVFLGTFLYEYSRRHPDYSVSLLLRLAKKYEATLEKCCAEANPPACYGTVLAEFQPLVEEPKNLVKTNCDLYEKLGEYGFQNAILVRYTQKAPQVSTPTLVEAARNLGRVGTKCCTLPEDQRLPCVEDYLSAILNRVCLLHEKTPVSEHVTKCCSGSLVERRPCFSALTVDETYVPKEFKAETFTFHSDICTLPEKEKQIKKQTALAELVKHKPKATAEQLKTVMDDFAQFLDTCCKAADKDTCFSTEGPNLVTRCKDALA
T1 sequence (P08835 25-607): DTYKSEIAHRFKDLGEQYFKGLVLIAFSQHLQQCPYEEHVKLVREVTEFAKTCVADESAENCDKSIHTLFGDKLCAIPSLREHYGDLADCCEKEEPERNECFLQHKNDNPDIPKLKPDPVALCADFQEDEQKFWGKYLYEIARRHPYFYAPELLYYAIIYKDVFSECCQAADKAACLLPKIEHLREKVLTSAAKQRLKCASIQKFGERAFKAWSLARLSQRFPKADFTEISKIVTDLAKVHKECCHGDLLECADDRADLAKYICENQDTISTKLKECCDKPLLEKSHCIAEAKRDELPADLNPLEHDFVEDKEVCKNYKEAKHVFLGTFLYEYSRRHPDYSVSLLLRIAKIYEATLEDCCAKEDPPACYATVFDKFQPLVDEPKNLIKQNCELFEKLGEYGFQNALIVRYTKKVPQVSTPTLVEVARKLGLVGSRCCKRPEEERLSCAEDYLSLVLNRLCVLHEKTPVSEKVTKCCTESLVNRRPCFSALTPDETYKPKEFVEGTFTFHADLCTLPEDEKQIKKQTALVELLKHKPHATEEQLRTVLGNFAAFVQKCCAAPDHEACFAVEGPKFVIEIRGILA
T4 sequence (P02769 25-607): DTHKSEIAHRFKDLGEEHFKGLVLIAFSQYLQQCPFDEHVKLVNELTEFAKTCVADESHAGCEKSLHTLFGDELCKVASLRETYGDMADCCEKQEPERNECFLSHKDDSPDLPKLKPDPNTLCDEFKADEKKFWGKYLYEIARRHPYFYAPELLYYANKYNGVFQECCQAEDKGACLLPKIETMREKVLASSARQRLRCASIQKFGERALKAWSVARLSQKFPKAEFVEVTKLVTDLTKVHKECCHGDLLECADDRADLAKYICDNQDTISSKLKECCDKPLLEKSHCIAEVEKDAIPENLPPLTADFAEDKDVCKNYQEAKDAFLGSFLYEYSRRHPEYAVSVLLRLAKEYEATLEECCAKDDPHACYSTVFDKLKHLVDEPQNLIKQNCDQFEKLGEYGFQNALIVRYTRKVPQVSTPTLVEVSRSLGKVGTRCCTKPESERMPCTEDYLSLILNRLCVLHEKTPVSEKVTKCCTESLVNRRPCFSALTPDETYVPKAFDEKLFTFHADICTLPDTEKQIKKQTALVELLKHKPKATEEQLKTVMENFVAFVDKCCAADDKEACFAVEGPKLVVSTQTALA

In the case of CCCCCCCCCCCC(=O)OCC(O)CO (stereo not shown) [GML, Glycerol monolaurate], the AKT clustering (total AKT microclusters; 10 μg/ml GML alone) is reported as “inhibits”, the “AKT clustering in GML treated cells” value (total AKT microclusters; 10 μg/ml GML with 1% HSA) is reported as “relieves this inhibition” and the Kd (pig serum albumin (PSA)) is reported as 4.5 ± 1.6 µM. The ΔH (pig serum albumin (PSA); ITC, single-site model, PSA) was -2.0 ± 0.63 kcal/mol, the ΔH [1, 8] was -3.0 ± 1.1 kcal/mol and the Kd ([1]; Kd, ITC, single-site model, 5 μM albumin, 150 μM ligand) was ~1.4 µM and 1.4 µM. The “LAT microcluster formation in GML treated cells” value (LAT pY226 microclusters; 10 μg/ml GML in 1% HSA, to levels similar to ethanol and HSA controls) was “significantly increased”, the “LAT clustering at the membrane” value (LAT pY226 microclusters; 10 μg/ml GML, serum free media) was “drastically decreased” and the “IL-10 production vs control APBTs” value (IL-10 production; 10 μg/ml GML, all doses of HSA) was “significantly increased”. For the same compound, the “IL-10 production vs GML in serum free media” value (IL-10 production; 20 μg/ml GML, all concentrations of HSA tested) was “did not restore”, the “IL-10 production vs ethanol control” value (IL-10 production; [9]) was “significantly reduced” and the Kd [2] was 6.3 ± 2.7 µM. For the same compound, the ΔH ([2]; ITC, single-site model, MSA) was -4.9 ± 1.1 kcal/mol, the PLC-γ1 clustering ([3]; 10 μg/ml GML alone) was “inhibits” and the “PLC-γ1 clustering in GML treated cells” value ([3]; 10 μg/ml GML with 1% HSA) was “relieves this inhibition”. For the same compound, the “IFN-γ production vs GML treatment alone” value (IFN-γ production; 1% or 0.2% HSA, 10 μg/ml GML) was “significant restoration”, the “IFN-γ production vs GML treatment alone” value (IFN-γ production; 2% HSA, both GML doses (10 and 20 μg/ml)) was “significantly restored” and the “IFNγ production vs ethanol control” value (IFN-γ production; [9]) was “significantly reduced”. For the same compound, the aqueous solubility cap ([4]; aqueous, under 37°C, stated as a fact, no reference printed for it) was 100 µg/mL (≈ 364 µM), the “solubility in gel formulations” value ([4]; topical GML in gel formulations ref [3],[19]) was “up to 50 mg/ml” and the “IL-2 production vs GML in serum free media” value (IL-2 production; 10 μg/ml GML, 2% and 1% HSA) was “significantly increased”. For the same compound, the “IL-2 production vs GML in serum free conditions” value (IL-2 production; 20 μg/ml GML, all HSA doses) was “did not have significantly increased”, the “IL-2 production vs ethanol control” value (IL-2 production; [9]) was “significantly reduced” and the Kd [5] was 5.4 ± 1.3 µM. The ΔH ([5]; ITC, single-site model, RSA) was -4.5 ± 0.61 kcal/mol, the “AKT T308 phosphorylation vs GML alone” value ([6]; 10 μg/ml GML in 1% HSA, 5 and 15 minutes post stimulation) was “significantly increased” and the “AKT S473 phosphorylation vs GML alone” value ([6]; 10 μg/ml GML in 1% HSA, 15 minutes post stimulation) was “significantly increased”. The “phosphorylation of both AKT residues (T308, S473) post stimulation vs GML treated cells” value ([6]; 10 μg/ml GML in 1% HSA, below levels in ethanol control) was “modest increase”, the “AKT S473 phosphorylation vs ethanol control” value [6, 10] was “drastically suppressed” and the “AKT T308 phosphorylation vs ethanol control” value [6, 10] was “drastically suppressed”. For the same compound, the “GML molecules bound to HSA” value (HSA; 10 and 20 μg/ml GML, all HSA concentrations, no other ligands assumed) was over 90%, the “GML bound to albumin” value (HSA; low-albumin sites (urine, vaginal secretions, CSF etc.), GML doses less than 20 μg/ml) was “mostly bound” and the “albumin bound to GML” value (HSA; lymphatic fluid, albumin 40% to 90% of the serum concentration) was over 99%. The “GML molecules bound to albumin” value (HSA; plasma albumin 35 to 50 g/L, concentrations where GML is soluble, Kd 1.4 μM) was over 99%, the “concentration of GML-HSA complexes relative to free GML molecules” value (HSA; skin wound exudate albumin 10 to 30 g/L, GML doses between 500 to 5000 μg/ml) was “within one order of magnitude” and the “GML molecules bound to HSA” value (HSA; skin wound exudate albumin 10 to 30 g/L, GML doses greater than 5000 μg/ml) was under 2%. For the same compound, the “GML bound to HSA” value (HSA; skin wound exudate albumin 10 to 30 g/L, GML doses less than 500 μg/ml) was over 90%, the “TNF-α production vs GML in serum free media” value (TNF-α production; 10 and 20 μg/ml GML, all concentrations of HSA) was “significantly increased” and the “TNFα production vs ethanol control” value (TNF-α production; [9]) was “significantly reduced”. For the same compound, the Kd [7] was 2.2 ± 1.1 µM and the ΔH ([7]; ITC, single-site model, BSA) was -4.5 ± 0.77 kcal/mol.
For OCC(O)CO [Glycerol, glycerol], the Kd [1] was over 50 µM and the “binding reaction with HSA” value ([1]; ITC, 5 μM HSA, 150 μM glycerol) was “did not have measurable binding reaction”.
In the case of CCCCCCCCCCCC(=O)O [LA, Lauric acid], the Kd [1, 8] is reported as 4.9 ± 1.1 µM, the ΔH [1, 8] is reported as -24 kcal/mol and -24 ± 0.63 kcal/mol and the “n (stoichiometry)” value ([1]; ITC, single-site model, ligand:HSA) is reported as 1.1 ± 0.4.
